target: T1, Gonadotropin-releasing hormone receptor (Rattus norvegicus, UniProt P30969); assay: Inhibitory concentration against rat leutinizing releasing hormone receptor
T1 sequence (P30969 whole entry): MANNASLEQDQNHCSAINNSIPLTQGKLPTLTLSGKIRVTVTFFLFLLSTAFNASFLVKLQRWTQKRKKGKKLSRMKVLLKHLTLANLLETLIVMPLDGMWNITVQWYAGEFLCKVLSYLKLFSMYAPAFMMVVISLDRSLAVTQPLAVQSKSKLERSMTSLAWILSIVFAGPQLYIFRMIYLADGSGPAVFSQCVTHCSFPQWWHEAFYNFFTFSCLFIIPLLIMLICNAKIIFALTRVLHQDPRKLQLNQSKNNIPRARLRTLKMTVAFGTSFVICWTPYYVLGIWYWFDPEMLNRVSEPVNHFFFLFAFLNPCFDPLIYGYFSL

SMILES | IC50
CCCn1c(SCc2cc([N+](=O)[O-])ccc2OC)nc2cc(NC(=O)NC(C)(C)C)cc(C(=O)NCc3ccccn3)c21 | 51 nM
COc1ccc(C#N)cc1CSc1nc2cc(NC(=O)C3CC3)ccc2n1C(C)C | > 10000 nM
CCn1c(SCc2cc([N+](=O)[O-])ccc2OC)nc2cc(NC(=O)NC(C)(C)C)ccc21 | 170 nM
CCCn1c(SCc2cc([N+](=O)[O-])ccc2OC)nc2cc(NC(=O)NC(C)(C)C)cc(C(=O)O)c21 | 510 nM
CCCn1c(SCc2cc([N+](=O)[O-])ccc2OC)nc2cc(NC(=O)NC(C)(C)C)cc(C(=O)NCCc3cccnc3)c21 | 110 nM
COc1ccc([N+](=O)[O-])cc1CSc1nc2cc(NC(=O)OC(C)(C)C)ccc2n1C(C)C | 710 nM
COc1ccc([N+](=O)[O-])cc1CSc1nc2cc(NC(=O)NC(C)(C)C)ccc2n1Cc1ccccn1 | 670 nM
COc1ccc([N+](=O)[O-])cc1CSc1nc2cc(NC(=O)NC(C)(C)C)ccc2n1Cc1cccnc1 | 150 nM
CC(C)n1c(SCc2ccccc2Cl)nc2cc(NC(=O)C3CC3)ccc21 | > 10000 nM
COc1ccccc1CSc1nc2cc(NC(=O)C3CC3)ccc2n1C(C)C | > 10000 nM
CCCCCn1c(SCc2cc([N+](=O)[O-])ccc2OC)nc2cc(NC(=O)NC(C)(C)C)ccc21 | 880 nM
CCCn1c(SCc2cc([N+](=O)[O-])ccc2OC)nc2cc(NC(=O)NC(C)(C)C)cc(C(=O)NCCc3ccncc3)c21 | 45 nM
COc1ccc(C(C)=O)cc1CSc1nc2cc(NC(=O)C3CC3)ccc2n1C(C)C | > 10000 nM
CCCn1c(SCc2cc([N+](=O)[O-])ccc2OC)nc2cc(NC(=O)NC(C)(C)C)ccc21 | 120 nM
COc1ccc([N+](=O)[O-])cc1CSc1nc2cc(NC(=O)C(C)(C)C)ccc2n1C(C)C | > 10000 nM
Cc1ccccc1CSc1nc2cc(NC(=O)C3CC3)ccc2n1C(C)C | > 10000 nM
COc1ccc([N+](=O)[O-])cc1CSc1nc2cc(NC(=O)NC(C)(C)C)ccc2n1-c1ccccc1 | > 2600 nM
COC(=O)c1ccc(OC)c(CSc2nc3cc(NC(=O)C4CC4)ccc3n2C(C)C)c1 | > 10000 nM
COc1ccc([N+](=O)[O-])cc1CSc1nc2cc(NC(=O)NC(C)(C)C)ccc2n1Cc1ccccc1 | 160 nM
COCCn1c(SCc2cc([N+](=O)[O-])ccc2OC)nc2cc(NC(=O)NC(C)(C)C)ccc21 | 280 nM
CCCn1c(SCc2cc([N+](=O)[O-])ccc2OC)nc2cc(NC(=O)NC(C)(C)C)cc(C(=O)NC)c21 | 23 nM
COc1ccc([N+](=O)[O-])cc1CSc1nc2cc(NC(=O)NC3CC3)ccc2n1C(C)C | 1600 nM
COc1ccc([N+](=O)[O-])cc1CSc1nc2cc(NC(=O)NC(C)(C)C)ccc2n1Cc1ccncc1 | 240 nM

SMILES | IC50
CCCCn1c(SCc2cc([N+](=O)[O-])ccc2OC)nc2cc(NC(=O)NC(C)(C)C)ccc21 | 330 nM
CCCn1c(SCc2cc([N+](=O)[O-])ccc2OC)nc2cc(NC(=O)NC(C)(C)C)cc(C(=O)OC)c21 | 280 nM
CCCn1c(SCc2cc([N+](=O)[O-])ccc2OC)nc2cc(NC(=O)NC(C)(C)C)cc(C(=O)NCCc3ccccn3)c21 | 56 nM
Cc1cccc(CSc2nc3cc(NC(=O)C4CC4)ccc3n2C(C)C)c1 | > 10000 nM
CCCn1c(SCc2cc([N+](=O)[O-])ccc2OC)nc2cc(NC(=O)NC(C)(C)C)cc(C(=O)NC(C)(C)C)c21 | 490 nM
COc1ccc([N+](=O)[O-])cc1CSc1nc2cc(NC(=O)NC(C)(C)C)ccc2n1C(C)C | 62 nM
CCCn1c(SCc2cc([N+](=O)[O-])ccc2OC)nc2cc(NC(=O)NC(C)(C)C)cc(C(=O)NCc3ccncc3)c21 | 35 nM
COc1ccc([N+](=O)[O-])cc1CSc1nc2cc(NC(=O)NC(C)(C)C)ccc2n1CCc1ccccc1 | 300 nM
CCCn1c(SCc2cc([N+](=O)[O-])ccc2OC)nc2cc(NC(=O)NC(C)(C)C)cc(C(=O)NCCN)c21 | 55 nM
COc1ccc([N+](=O)[O-])cc1CSc1nc2cc(NC(=O)C3CC3)ccc2n1C(C)C | > 8200 nM
COc1ccc([N+](=O)[O-])cc1CSc1nc2cc(NC(=O)C3CCC3)ccc2n1C(C)C | 630 nM
COc1ccc([N+](=O)[O-])cc1CSc1nc2cc(NC(=O)C(C)C)ccc2n1C(C)C | 1500 nM
COc1ccc(Cl)cc1CSc1nc2cc(NC(=O)C3CC3)ccc2n1C(C)C | > 10000 nM
CCCn1c(SCc2cc([N+](=O)[O-])ccc2OC)nc2cc(NC(=O)NC(C)(C)C)cc(C(=O)NCc3cccnc3)c21 | 54 nM
CCCn1c(SCc2cc([N+](=O)[O-])ccc2OC)nc2cc(NC(=O)NC(C)(C)C)cc(C(=O)NCCCN(C)Cc3ccccc3)c21 | 21 nM
COc1ccc([N+](=O)[O-])cc1CSc1nc2cc(NC(=O)NC(C)C)ccc2n1C(C)C | 280 nM
CNC(=O)Nc1ccc2c(c1)nc(SCc1cc([N+](=O)[O-])ccc1OC)n2C(C)C | > 10000 nM
CCCn1c(SCc2cc([N+](=O)[O-])ccc2OC)nc2cc(NC(=O)NC(C)(C)C)cc(C(=O)NCc3ccccc3)c21 | 130 nM
CCCn1c(SCc2cc([N+](=O)[O-])ccc2OC)nc2cc(NC(=O)NC(C)(C)C)cc(C(=O)N(C)C)c21 | 200 nM
COc1ccc([N+](=O)[O-])cc1CSc1nc2cc(NC(=O)NC(C)(C)C)ccc2n1C1CC1 | 860 nM
CCCn1c(SCc2cc([N+](=O)[O-])ccc2OC)nc2cc(NC(=O)NC(C)(C)C)cc(C(=O)N3CCCC3)c21 | 140 nM
COc1ccc([N+](=O)[O-])cc1CSc1nc2cc(NC(=O)CC(C)(C)C)ccc2n1C(C)C | 110 nM
CCCn1c(SCc2cc([N+](=O)[O-])ccc2OC)nc2cc(NC(=O)NC(C)(C)C)cc(C(=O)NCCCN(C)C)c21 | 19 nM

target: T2, Gonadotropin-releasing hormone receptor (Homo sapiens, UniProt P30968); assay: Inhibitory concentration against human leutinizing releasing hormone receptor
T2 sequence (P30968 whole entry): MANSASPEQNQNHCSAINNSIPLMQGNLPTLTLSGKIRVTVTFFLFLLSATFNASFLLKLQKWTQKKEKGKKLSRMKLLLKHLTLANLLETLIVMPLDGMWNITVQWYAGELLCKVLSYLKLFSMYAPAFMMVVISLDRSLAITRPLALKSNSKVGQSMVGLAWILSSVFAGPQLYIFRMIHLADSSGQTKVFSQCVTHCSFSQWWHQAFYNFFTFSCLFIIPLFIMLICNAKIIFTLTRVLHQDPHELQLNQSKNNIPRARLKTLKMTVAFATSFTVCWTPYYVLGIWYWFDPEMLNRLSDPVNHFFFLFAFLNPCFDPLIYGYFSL

SMILES | IC50
CCCn1c(SCc2cc([N+](=O)[O-])ccc2OC)nc2cc(NC(=O)NC(C)(C)C)cc(C(=O)NCc3ccccn3)c21 | 31 nM
COc1ccc(C#N)cc1CSc1nc2cc(NC(=O)C3CC3)ccc2n1C(C)C | 570 nM
CCn1c(SCc2cc([N+](=O)[O-])ccc2OC)nc2cc(NC(=O)NC(C)(C)C)ccc21 | 42 nM
CCCn1c(SCc2cc([N+](=O)[O-])ccc2OC)nc2cc(NC(=O)NC(C)(C)C)cc(C(=O)O)c21 | 21 nM
CCCn1c(SCc2cc([N+](=O)[O-])ccc2OC)nc2cc(NC(=O)NC(C)(C)C)cc(C(=O)NCCc3cccnc3)c21 | 160 nM
COc1ccc([N+](=O)[O-])cc1CSc1nc2cc(NC(=O)OC(C)(C)C)ccc2n1C(C)C | 880 nM
COc1ccc([N+](=O)[O-])cc1CSc1nc2cc(NC(=O)NC(C)(C)C)ccc2n1Cc1ccccn1 | 43 nM
COc1ccc([N+](=O)[O-])cc1CSc1nc2cc(NC(=O)NC(C)(C)C)ccc2n1Cc1cccnc1 | 33 nM
CC(C)n1c(SCc2ccccc2Cl)nc2cc(NC(=O)C3CC3)ccc21 | 6300 nM
COc1ccccc1CSc1nc2cc(NC(=O)C3CC3)ccc2n1C(C)C | 2100 nM
CCCCCn1c(SCc2cc([N+](=O)[O-])ccc2OC)nc2cc(NC(=O)NC(C)(C)C)ccc21 | 210 nM
CCCn1c(SCc2cc([N+](=O)[O-])ccc2OC)nc2cc(NC(=O)NC(C)(C)C)cc(C(=O)NCCc3ccncc3)c21 | 130 nM
COc1ccc(C(C)=O)cc1CSc1nc2cc(NC(=O)C3CC3)ccc2n1C(C)C | 260 nM
CCCn1c(SCc2cc([N+](=O)[O-])ccc2OC)nc2cc(NC(=O)NC(C)(C)C)ccc21 | 18 nM
COc1ccc([N+](=O)[O-])cc1CSc1nc2cc(NC(=O)C(C)(C)C)ccc2n1C(C)C | 180 nM
Cc1ccccc1CSc1nc2cc(NC(=O)C3CC3)ccc2n1C(C)C | 3200 nM
COc1ccc([N+](=O)[O-])cc1CSc1nc2cc(NC(=O)NC(C)(C)C)ccc2n1-c1ccccc1 | 350 nM
COC(=O)c1ccc(OC)c(CSc2nc3cc(NC(=O)C4CC4)ccc3n2C(C)C)c1 | 980 nM
COc1ccc([N+](=O)[O-])cc1CSc1nc2cc(NC(=O)NC(C)(C)C)ccc2n1Cc1ccccc1 | 28 nM
COCCn1c(SCc2cc([N+](=O)[O-])ccc2OC)nc2cc(NC(=O)NC(C)(C)C)ccc21 | 57 nM
CCCn1c(SCc2cc([N+](=O)[O-])ccc2OC)nc2cc(NC(=O)NC(C)(C)C)cc(C(=O)NC)c21 | 41 nM
COc1ccc([N+](=O)[O-])cc1CSc1nc2cc(NC(=O)NC3CC3)ccc2n1C(C)C | 1900 nM
COc1ccc([N+](=O)[O-])cc1CSc1nc2cc(NC(=O)NC(C)(C)C)ccc2n1Cc1ccncc1 | 47 nM

SMILES | IC50
CCCCn1c(SCc2cc([N+](=O)[O-])ccc2OC)nc2cc(NC(=O)NC(C)(C)C)ccc21 | 23 nM
CCCn1c(SCc2cc([N+](=O)[O-])ccc2OC)nc2cc(NC(=O)NC(C)(C)C)cc(C(=O)OC)c21 | 37 nM
CCCn1c(SCc2cc([N+](=O)[O-])ccc2OC)nc2cc(NC(=O)NC(C)(C)C)cc(C(=O)NCCc3ccccn3)c21 | 27 nM
Cc1cccc(CSc2nc3cc(NC(=O)C4CC4)ccc3n2C(C)C)c1 | 6500 nM
CCCn1c(SCc2cc([N+](=O)[O-])ccc2OC)nc2cc(NC(=O)NC(C)(C)C)cc(C(=O)NC(C)(C)C)c21 | 410 nM
COc1ccc([N+](=O)[O-])cc1CSc1nc2cc(NC(=O)NC(C)(C)C)ccc2n1C(C)C | 62 nM
CCCn1c(SCc2cc([N+](=O)[O-])ccc2OC)nc2cc(NC(=O)NC(C)(C)C)cc(C(=O)NCc3ccncc3)c21 | 61 nM
COc1ccc([N+](=O)[O-])cc1CSc1nc2cc(NC(=O)NC(C)(C)C)ccc2n1CCc1ccccc1 | 360 nM
CCCn1c(SCc2cc([N+](=O)[O-])ccc2OC)nc2cc(NC(=O)NC(C)(C)C)cc(C(=O)NCCN)c21 | 210 nM
COc1ccc([N+](=O)[O-])cc1CSc1nc2cc(NC(=O)C3CC3)ccc2n1C(C)C | 280 nM
COc1ccc([N+](=O)[O-])cc1CSc1nc2cc(NC(=O)C3CCC3)ccc2n1C(C)C | 1500 nM
COc1ccc([N+](=O)[O-])cc1CSc1nc2cc(NC(=O)C(C)C)ccc2n1C(C)C | 250 nM
COc1ccc(Cl)cc1CSc1nc2cc(NC(=O)C3CC3)ccc2n1C(C)C | 160 nM
CCCn1c(SCc2cc([N+](=O)[O-])ccc2OC)nc2cc(NC(=O)NC(C)(C)C)cc(C(=O)NCc3cccnc3)c21 | 69 nM
CCCn1c(SCc2cc([N+](=O)[O-])ccc2OC)nc2cc(NC(=O)NC(C)(C)C)cc(C(=O)NCCCN(C)Cc3ccccc3)c21 | 190 nM
COc1ccc([N+](=O)[O-])cc1CSc1nc2cc(NC(=O)NC(C)C)ccc2n1C(C)C | 600 nM
CNC(=O)Nc1ccc2c(c1)nc(SCc1cc([N+](=O)[O-])ccc1OC)n2C(C)C | 3300 nM
CCCn1c(SCc2cc([N+](=O)[O-])ccc2OC)nc2cc(NC(=O)NC(C)(C)C)cc(C(=O)NCc3ccccc3)c21 | 120 nM
CCCn1c(SCc2cc([N+](=O)[O-])ccc2OC)nc2cc(NC(=O)NC(C)(C)C)cc(C(=O)N(C)C)c21 | 270 nM
COc1ccc([N+](=O)[O-])cc1CSc1nc2cc(NC(=O)NC(C)(C)C)ccc2n1C1CC1 | 79 nM
CCCn1c(SCc2cc([N+](=O)[O-])ccc2OC)nc2cc(NC(=O)NC(C)(C)C)cc(C(=O)N3CCCC3)c21 | 610 nM
COc1ccc([N+](=O)[O-])cc1CSc1nc2cc(NC(=O)CC(C)(C)C)ccc2n1C(C)C | 180 nM
CCCn1c(SCc2cc([N+](=O)[O-])ccc2OC)nc2cc(NC(=O)NC(C)(C)C)cc(C(=O)NCCCN(C)C)c21 | 170 nM
